Reference: patent US20250236617A1, “BICYCLIC TETRAHYDROTHIAZEPINE DERIVATIVES” (Hoffmann-La Roche Inc., priority 2022, published 2025)

Experiments:
primary human T-cells [1] = test: IL2 secretion measurements in CD3-stimulated T-cells; type: cell-based; details: CD3 condition; for Emax IL2 (% activation): 24 hours, 20 μM reference compound A1 = 100%; for EC50: Homo sapiens, T-cell, IL2 secretion after 24 hours, read-out: Tcell IL2 CD3 EC50
Summary of the method: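 Expanded primary human T-cells (100 k/well, RPMI + 5% human serum) on plate-bound anti-CD3 (donor-titrated) or PBS counter-screen wells, 5–6 pt dose response from 20 or 10 μM top (dilution factor 3.333), 0.2% DMSO final. IL-2 in 24 h supernatant by ProQuantum immunoassay or ELISA. Normalised to DMSO (0%) and 20 μM reference A1 (100%); EC50 and Emax from sigmoidal fit.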

[2] = biological target: DGKalpha (hDGKalpha(1-735)-N-His) (Homo sapiens (Human), UniProt P23743); test: In vitro DGK inhibition assay, ADP-Glo (in house), DGKalpha; type: biochemical; details: DLG liposomes, 25 μM ATP, 4 nM enzyme, 1 hour reaction
Protocol: (§1) DGK α and ζ kinases use ATP to phosphorylate the substrate 1,2-dilauroyl-sn-glycerol (DLG, incorporated in the liposomes). ATP is converted to ADP as a result of this enzymatic reaction.
(§2) After the kinase reaction, an ATP-depletion reagent is added to terminate the kinase reaction and deplete any remaining ATP, leaving only ADP. Second, a detection reagent is added to simultaneously convert ADP to ATP and allow the newly synthesized ATP to be converted to light using a coupled luciferase/luciferin reaction.
(§3) Purification of both enzymes was performed as previously described by Takahashi et al., PeerJ, 2018 (Takahashi, D.; Sakane, F. Expression and purification of human diacylglycerol kinase alpha from baculovirus-infected insect cells for structural studies. PeerJ 2018, 6, No. e5449).
(§4) A concentrated liposome solution was prepared in assay buffer without DTT and BSA: 2 mM of DLG in 21 mM of total liposome (2 mM DLG/8 mM PS/11 mM PC). The reaction mixtures contain the assay buffer with a final DLG concentration of 125 uM ATP concentrations of 25 μM (for DGKA assay) or 50 μM (for DGKZ assay). The reactions were started by addition of DGK α and ζ kinases at 4 nM and 2 nM final concentrations, respectively. After 1 hour reaction, the amount of ADP formed was detected with the ADP-Glo kinase assay (Promega) according to the manufacturer instructions. Compounds were added in 11-points dose response, starting at […], 1:3 dilutions, with a final DMSO concentration of 2%. The multidrop combi was used as a liquid handler and luminescence was read with 0.5 s by the envision reader (PE).

primary human T-cells [3] = test: T-cell proliferation assay (CellTiter-Glo); type: cell-based; details: CD3 condition; for Emax proliferation (% activation): 5 days, 20 μM reference compound A1 = 100%; for EC50: Homo sapiens, T-cell, 120 h, proliferation after 5 days, CellTiter-Glo, read-out: Tcell Proliferation CD3 EC50
[4] = biological target: DGKzeta (hDGKzeta(1-928)-N-His) (Homo sapiens (Human), UniProt Q13574); test: In vitro DGK inhibition assay, ADP-Glo (in house), DGKzeta; type: biochemical; details: DLG liposomes, 50 μM ATP, 2 nM enzyme, 1 hour reaction
Protocol: as §1, §2, §3, §4

DGKzeta (hDGKzeta(1-928)-N-His), sequence (Q13574 whole entry): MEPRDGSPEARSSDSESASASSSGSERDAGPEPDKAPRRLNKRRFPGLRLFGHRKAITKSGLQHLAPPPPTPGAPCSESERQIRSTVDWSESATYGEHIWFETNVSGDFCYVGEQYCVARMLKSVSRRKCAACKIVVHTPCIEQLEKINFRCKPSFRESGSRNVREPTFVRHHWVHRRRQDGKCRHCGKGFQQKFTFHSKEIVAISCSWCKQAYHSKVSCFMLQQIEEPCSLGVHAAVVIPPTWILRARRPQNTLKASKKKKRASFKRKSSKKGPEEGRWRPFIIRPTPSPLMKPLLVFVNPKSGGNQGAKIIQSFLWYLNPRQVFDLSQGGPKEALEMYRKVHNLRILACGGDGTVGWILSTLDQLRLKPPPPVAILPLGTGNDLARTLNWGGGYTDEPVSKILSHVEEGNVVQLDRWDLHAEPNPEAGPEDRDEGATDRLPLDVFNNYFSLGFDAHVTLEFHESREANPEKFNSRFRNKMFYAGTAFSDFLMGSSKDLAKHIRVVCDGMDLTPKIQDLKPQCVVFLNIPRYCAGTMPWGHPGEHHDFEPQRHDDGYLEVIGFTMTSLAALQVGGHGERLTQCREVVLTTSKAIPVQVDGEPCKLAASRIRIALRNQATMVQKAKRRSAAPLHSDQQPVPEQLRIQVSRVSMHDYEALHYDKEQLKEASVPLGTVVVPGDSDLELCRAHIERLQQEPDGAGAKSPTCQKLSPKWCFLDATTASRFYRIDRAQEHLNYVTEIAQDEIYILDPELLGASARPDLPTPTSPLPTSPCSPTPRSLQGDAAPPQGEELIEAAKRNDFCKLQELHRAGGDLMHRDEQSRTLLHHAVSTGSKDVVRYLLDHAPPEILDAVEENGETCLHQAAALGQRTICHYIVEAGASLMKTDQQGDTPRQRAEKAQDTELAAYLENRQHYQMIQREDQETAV
DGKalpha (hDGKalpha(1-735)-N-His), sequence (P23743 whole entry): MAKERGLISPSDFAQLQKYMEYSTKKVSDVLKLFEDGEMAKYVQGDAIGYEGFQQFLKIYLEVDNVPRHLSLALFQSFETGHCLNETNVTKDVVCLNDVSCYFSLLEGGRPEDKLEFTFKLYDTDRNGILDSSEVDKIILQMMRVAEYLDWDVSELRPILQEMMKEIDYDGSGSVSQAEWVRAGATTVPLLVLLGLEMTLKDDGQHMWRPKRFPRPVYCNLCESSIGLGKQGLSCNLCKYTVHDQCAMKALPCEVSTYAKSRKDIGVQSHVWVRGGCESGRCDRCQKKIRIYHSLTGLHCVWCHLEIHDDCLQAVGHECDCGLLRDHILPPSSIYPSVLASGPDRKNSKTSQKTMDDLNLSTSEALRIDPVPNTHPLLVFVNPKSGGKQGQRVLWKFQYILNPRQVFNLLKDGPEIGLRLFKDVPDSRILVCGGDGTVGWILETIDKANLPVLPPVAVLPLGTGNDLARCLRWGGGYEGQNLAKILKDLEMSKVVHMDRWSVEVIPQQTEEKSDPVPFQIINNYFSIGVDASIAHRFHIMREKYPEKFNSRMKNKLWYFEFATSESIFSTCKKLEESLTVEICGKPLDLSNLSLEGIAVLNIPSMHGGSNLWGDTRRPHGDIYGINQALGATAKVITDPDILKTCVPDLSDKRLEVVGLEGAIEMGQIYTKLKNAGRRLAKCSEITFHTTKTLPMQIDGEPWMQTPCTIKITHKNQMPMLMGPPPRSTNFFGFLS

| SMILES | Emax IL2 (% activation) (primary human T-cells [1]) | EC50 (primary human T-cells [1]) | IC50 [2] | Emax proliferation (% activation) (primary human T-cells [3]) | EC50 (primary human T-cells [3]) | IC50 [4] |
| --- | --- | --- | --- | --- | --- | --- |
| CC(C)(C)c1cc(-c2cc3c(cc2F)S(=O)(=O)C[C@H](N)C(=O)N3Cc2ccc(-c3noc(C(F)(F)F)n3)cc2)cnn1 [Example 34, (3R)-3-amino-7-(6-tert-butylpyridazin-4-yl)-8-fluoro-1,1-dioxo-5-[[4-[5-(trifluoromethyl)-1,2,4-oxadiazol-3-yl]phenyl]methyl]-2,3-dihydro-1λ6,5-benzothiazepin-4-one] | 96 % activation | 1400 nM | 13400 nM | 127 % activation | 361 nM | 7560 nM |
| N[C@H]1CS(=O)(=O)c2cc(F)c(-c3cnnc(OCC(F)(F)F)c3)cc2N(Cc2ccc(-c3noc(C(F)(F)F)n3)cc2)C1=O [Example 33, (3R)-3-amino-8-fluoro-1,1-dioxo-7-[6-(2,2,2-trifluoroethoxy)pyridazin-4-yl]-5-[[4-[5-(trifluoromethyl)-1,2,4-oxadiazol-3-yl]phenyl]methyl]-2,3-dihydro-1λ6,5-benzothiazepin-4-one] | 154 % activation | 2230 nM | 22200 nM | 103 % activation | 298 nM | 20000 nM |
| COc1ccc(-c2ccc(CN3C(=O)[C@@H](N)CS(=O)(=O)c4cc(F)c(-c5cncc(C(C)(C)C)c5)cc43)cc2)cc1 [Example 30, (3R)-3-amino-7-(5-tert-butyl-3-pyridyl)-8-fluoro-5-[[4-(4-methoxyphenyl)phenyl]methyl]-1,1-dioxo-2,3-dihydro-1λ6,5-benzothiazepin-4-one] | 100 % activation | 327 nM | 29100 nM | 177 % activation | 333 nM | 2600 nM |
| COc1ccc(-c2ccc(CN3C(=O)[C@@H](N)CS(=O)(=O)c4cc(F)c(-c5ccc(C(C)C)nc5)cc43)cc2)cc1 [Example 29, (3R)-3-amino-8-fluoro-7-(6-isopropyl-3-pyridyl)-5-[[4-(4-methoxyphenyl)phenyl]methyl]-1,1-dioxo-2,3-dihydro-1λ6,5-benzothiazepin-4-one] | 110 % activation | 453 nM | 18800 nM | 38 % activation | 71 nM | 13600 nM |
